Measured values: patent US20260242362A1, “PREPARATION OF 3,4,5-TRISUBSTITUTED TRIAZOLES AND METHODS OF USING THE SAME” (University of Florida Research Foundation, Incorporated, priority 2023, published 2026)
Read-outs that look alike come from different tables or passages of the source.

Experiments:
kappa opioid receptor [1] = target: T1, kappa opioid receptor (Homo sapiens, UniProt P41145); assay: GTPγS binding assay (G-protein activation); assay type: biochemical; conditions: for GTPγS Emax (% U60): relative to U69,593 = 100% Emax; for EC50: 3 parameter nonlinear regression, nc = did not converge; for GTPγS maximum stimulation observed at 10 μM (starred Emax cells): * compounds that did not reach plateau
Target sequence in this assay (P41145 whole entry, the tested form may be a part): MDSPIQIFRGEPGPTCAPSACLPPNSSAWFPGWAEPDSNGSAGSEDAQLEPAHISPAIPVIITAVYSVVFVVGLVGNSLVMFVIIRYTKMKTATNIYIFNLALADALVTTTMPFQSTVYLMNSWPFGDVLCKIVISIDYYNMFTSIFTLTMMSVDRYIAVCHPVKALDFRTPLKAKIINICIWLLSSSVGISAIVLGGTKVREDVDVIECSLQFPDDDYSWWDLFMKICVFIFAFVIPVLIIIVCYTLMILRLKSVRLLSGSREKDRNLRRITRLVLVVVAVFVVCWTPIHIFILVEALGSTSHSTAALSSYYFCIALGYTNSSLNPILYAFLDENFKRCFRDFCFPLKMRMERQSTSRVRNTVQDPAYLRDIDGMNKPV

kappa opioid receptor [2] = target: T1, kappa opioid receptor; assay: PathHunter DiscoverX β-arrestin2 recruitment (enzyme fragment complementation) assay; assay type: cell-based; conditions: for β-arrestin2 Emax (% U60): relative to U69,593 = 100% Emax, ~ did not plateau at 100%; for EC50: 3 parameter nonlinear regression, nc = did not converge; for β-arrestin2 maximum stimulation observed at 10 μM (starred Emax cells / % max at 10 uM): * compounds that did not reach plateau
Target sequence in this assay (P41145 whole entry, the tested form may be a part): as above
Target sequence in this assay (P32121 whole entry partner, the tested form may be a part): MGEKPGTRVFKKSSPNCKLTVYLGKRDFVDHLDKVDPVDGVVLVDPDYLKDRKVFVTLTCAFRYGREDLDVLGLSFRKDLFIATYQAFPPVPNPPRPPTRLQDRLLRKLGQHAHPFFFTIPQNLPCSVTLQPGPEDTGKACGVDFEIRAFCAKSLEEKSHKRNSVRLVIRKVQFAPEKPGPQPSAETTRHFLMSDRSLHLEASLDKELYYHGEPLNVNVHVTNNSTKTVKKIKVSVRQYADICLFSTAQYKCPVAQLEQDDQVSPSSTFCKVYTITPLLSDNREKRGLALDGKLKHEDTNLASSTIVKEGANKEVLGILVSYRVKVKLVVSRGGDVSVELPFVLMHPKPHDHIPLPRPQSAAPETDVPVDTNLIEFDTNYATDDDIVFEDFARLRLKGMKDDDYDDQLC

[3] = Microsomal stability, LC/MS detection over time; conditions: mouse hepatic microsomes
Procedure: (§1) Microsomal stability was determined using mouse hepatic microsomes and LC/MS detections over time (Zhou et al., 2013, 22).

kappa opioid receptor [4] = target: T1, kappa opioid receptor; assay: Bias analysis by operational model, G protein vs βarrestin2, U69,593 as reference agonist; conditions: U69,593 reference agonist; global parameter fitting
Target sequence in this assay (P41145 whole entry, the tested form may be a part): as the sequence (P41145 whole entry, the tested form may be a part) above

[5] = mouse, microsomes
Procedure: as §1

Compound | GTPγS Emax (% U60) (kappa opioid receptor [1]) | β-arrestin2 Emax (% U60) (kappa opioid receptor [2]) | EC50 (kappa opioid receptor [1]) [nM] | EC50 (kappa opioid receptor [2]; read-out: β-arrestin2 EC50) [nM] | β-arrestin2 maximum stimulation observed at 10 μM (starred Emax cells / % max at 10 uM) (kappa opioid receptor [2]) | Microsomal Stability [5] [min] | also measured
Clc1ccc(CCc2nnc(-c3ccccn3)n2Cc2cccs2)c(Cl)c1 [Compound 33] | 91 | 154 | – | – | – | – | Microsomal Stability [3]: 2.1 min
Clc1ccc(CCc2nnc(-c3ccccn3)n2Cc2cccs2)cc1Cl [Compound 32] | – | – | – | – | – | – | Microsomal Stability [3]: 1.5 min
Cc1ccc(/C=C/c2nnc(-c3ccccn3)n2Cc2ccco2)cc1C(F)(F)F [42 (UNC9008)] | 96.5 | 119 | 1600 | 51300 | – | – | Bias (bias factor 10^ΔΔ(logτ/KA) Gprotein-Barr2) (kappa opioid receptor [4]): 3.5
Cc1ccc(/C=C/c2nnc(-c3ccccn3)n2Cc2cccs2)cc1C(F)(F)F [49 (UNC9009)] | 83.2 | – | 667 | 20600 | 36.4 (% max at 10 uM) % U60 | – | Bias (bias factor 10^ΔΔ(logτ/KA) Gprotein-Barr2) (kappa opioid receptor [4]): 6.7
Cc1ccc(CCN(CCc2ccco2)C(=O)c2ccccn2)cc1C(F)(F)F [Compound 61] | 78 | – | 1540 | > 10000 | 41* % U60 | 0.9 | –
Cc1ccc(CCc2nnc(-c3cccnc3)n2Cc2cccs2)cc1C(F)(F)F [Compound 15] | 85 | – | – | – | 14* % U60 | 1.0 | –
Clc1ccc(CCc2nnc(-c3ccccn3)n2Cc2ccco2)cc1 [Compound 52] | 84 | 191 | 99 | 4530 | – | 3.3 | –
Cc1ccc(CCc2nnc(-c3nccn3C)n2Cc2ccco2)cc1C(F)(F)F [Compound 54] | 92 | 112 | 69 | 788 | – | 1.6 | Emax (weak partial agonist) (kappa opioid receptor [2]; text b193, assay not named): about 26%
Brc1cccc(CCc2nnc(-c3ccccn3)n2Cc2cccs2)c1 [Compound 29] | 89 | 114 | – | 5020 | – | 3.1 | –
Cc1ccc(CCc2nnc(-c3ccccn3)n2Cc2ccsc2)cc1C(F)(F)F [Compound 6] | – | – | 12 | 813 | – | 1.0 | –
Cc1ccc(/C=C/c2nnc(-c3nccn3C)n2Cc2nccs2)cc1C(F)(F)F [Compound 51] | – | 34 | 309 | 1680 | – | 14.5 | –
Cc1ccc(/C=C/c2nnc(-c3ccccn3)n2Cc2nccs2)cc1C(F)(F)F [Compound 48] | 82 | – | 767 | – | 51* % U60 | 19.1 | –
Cc1ccc(CCc2nnc(-c3ccccn3)n2Cc2ccncc2)cc1C(F)(F)F [Compound 12] | – | – | – | – | 12* % U60 | 0.9 | GTPγS maximum stimulation observed at 10 μM (starred Emax cells) (kappa opioid receptor [1]): 48* % U60
Cn1ccnc1-c1nnc(CCc2ccc(Cl)cc2)n1Cc1nccs1 [Compound 53] | 94 | 81 | 2250 | 5020 | – | 2.4 | –
Cc1ccc(CCc2nnc(-c3ccccn3)n2Cc2ccco2)cc1C(F)(F)F [Compound 2] | 90 | 119 | – | – | – | – | EC50 (kappa opioid receptor [2]; β-arrestin2 EC50 (nM)): 788 nM; Microsomal Stability ([3]; Table 1, head prints no unit (b175 gives min)): 0.9; Microsomal Stability [3]: 0.9 min
OC(Cc1ccccc1)c1nnc(-c2ccccn2)n1Cc1ccco1 (stereo not drawn) [Compound 41] | – | – | – | – | 0* % U60 | 17.4 | KOR potency / activity in words (SAR commentary) (kappa opioid receptor [1]): loss in potency; GTPγS maximum stimulation observed at 10 μM (starred Emax cells) (kappa opioid receptor [1]): 22* % U60
O=C(Cc1ccccc1)c1nnc(-c2ccccn2)n1Cc1ccco1 [Compound 42] | – | 2 | – | – | – | 8.1 | KOR potency / activity in words (SAR commentary) (kappa opioid receptor [1]): loss in potency; GTPγS maximum stimulation observed at 10 μM (starred Emax cells) (kappa opioid receptor [1]): 4* % U60; metabolic stability in words [5]: increased metabolic stability
Cc1ccc(CN(Cc2ccco2)C(=O)c2ccccn2)cc1C(F)(F)F [Compound 57] | 92 | 87 | 368 | 3130 | – | 1.8 | –
Cc1ccc(/C=C/c2nnc(-c3ccccn3)n2Cc2nccs2)cc1C(F)(F)F [50 (UNC9078)] | 81.6 | – | 767 | – | 51.6 (% max at 10 uM) % U60 | 10.1 | –
Cc1ccc(/C=C/c2nnc(-c3nccn3C)n2Cc2ccco2)cc1C(F)(F)F [Compound 49] | 76 | – | – | – | 17* % U60 | 14.1 | –
Cc1ccc(CCc2nnc(-c3ccccn3)n2Cc2nccs2)cc1C(F)(F)F [Compound 7] | 63 | 82 | 51 | 3570 | – | 2.1 | –
Cc1ccc(CCc2nnc(-c3nccn3C)n2Cc2cccs2)cc1C(F)(F)F [Compound 56] | 105 | 98 | 95 | 888 | – | – | Bias (bias factor 10^ΔΔ(logτ/KA) Gprotein-Barr2) (kappa opioid receptor [4]): 12
FC(Cc1ccccc1)c1nnc(-c2ccccn2)n1Cc1ccco1 (stereo not drawn) [Compound 43] | – | – | 3820 | > 10000 | 7* % U60 | 9.1 | –
